In US10029017B2, “Pretargeted activatable cell penetrating peptide with intracellularly releasable prodrug” (The Regents of the University of California, priority 2013, dated 2018):
Non-standard residues stand in square brackets, D forms with d. Residues, ends and D or L forms follow the SMILES beside them. *: point of attachment. Dolaproine = CO[C@@H]([C@@H]1CCCN1)[C@@H](C)C(=O)O; Dil = CC[C@H](C)[C@H](NC)[C@@H](CC(=O)O)OC; X1 = C[C@@H](N*)[C@@H](O)c1ccccc1; NMeV = CN[C@H](C(=O)O)C(C)C

System: MDA-MB-231 orthotopic xenografts
Experiment: chemotherapy of MDA-MB-231 orthotopic xenografts: tumor volume, regression, survival
Format: in vivo, mice
Details: 0.32 mg/kg equivalents of MMAE, equimolar free MMAE
From the text: A) Tumor growth curve obtained from MDA-MB-231 bilateral tumor bearing mice that were either intravenously injected with 6.5 nanomoles of MMAE (red line), cRAD-PEG6-MMAE (green line), cRGD-MMP-MMAE (dark blue) or no injection (no treatment, light blue).
Monomethyl auristatin E (MMAE), a potent chemotherapeutic inhibitor of tubulin polymerization, was conjugated to an ACPP via a peptide linker, Val-Cit-(p-amido)benzyloxycarbonyl, which is cleavable by cathepsin B, an endolysosomal protease. Mice harboring MDA-MB-231 orthotopic xenografts were dosed with cRGD-ACPP-MMAE at 0.2 mg/kg equivalents MMAE (6.5 nanomoles peptide) every three days for a total of four doses and tumor volumes were measured at regular intervals. […] When the dose was increased to 0.32 mg/kg equivalents of MMAE, the dual targeted peptide caused 4 out of 8 tumors to regress completely, compared to 2 out of 8 for equimolar free MMAE. The ACPPs caused no weight loss or gross toxicity. […] Animal weights are illustrated in FIGS. 7, 9, and 11.

**Q.** With `CC[C@H](C)[C@@H]([C@@H](CC(=O)N1CCC[C@H]1[C@H](OC)[C@@H](C)C(=O)N[C@H](C)[C@@H](O)c1ccccc1)OC)N(C)C(=O)[C@@H](NC(=O)[C@@H](NC)C(C)C)C(C)C` [MMAE, Monomethyl auristatin E] (H-[NMeV]V[Dil][Dolaproine]-X1) as the compound, how does the “tumors that regressed completely” value read?
**A.** The value was 2 out of 8.
